Laboratory results as given in ChEMBL document CHEMBL4219257, “Novel 8-hydroxyquinoline derivatives targeting β-amyloid aggregation, metal chelation and oxidative stress against Alzheimer's disease” (Bioorg Med Chem, 2018).
Activity calls are given as the source filed them. No cut-off for these calls is given here.

How the values were obtained:
[1] = target: T1, Amyloid-beta precursor protein (Homo sapiens, UniProt P05067); assay: Inhibition of HFIP-pretreated amyloid beta (1 to 42) (unknown origin) self-induced aggregation at 10 uM after 48 hrs by thioflavin T-based fluorometric assay relative to control
T1 sequence (P05067 whole entry): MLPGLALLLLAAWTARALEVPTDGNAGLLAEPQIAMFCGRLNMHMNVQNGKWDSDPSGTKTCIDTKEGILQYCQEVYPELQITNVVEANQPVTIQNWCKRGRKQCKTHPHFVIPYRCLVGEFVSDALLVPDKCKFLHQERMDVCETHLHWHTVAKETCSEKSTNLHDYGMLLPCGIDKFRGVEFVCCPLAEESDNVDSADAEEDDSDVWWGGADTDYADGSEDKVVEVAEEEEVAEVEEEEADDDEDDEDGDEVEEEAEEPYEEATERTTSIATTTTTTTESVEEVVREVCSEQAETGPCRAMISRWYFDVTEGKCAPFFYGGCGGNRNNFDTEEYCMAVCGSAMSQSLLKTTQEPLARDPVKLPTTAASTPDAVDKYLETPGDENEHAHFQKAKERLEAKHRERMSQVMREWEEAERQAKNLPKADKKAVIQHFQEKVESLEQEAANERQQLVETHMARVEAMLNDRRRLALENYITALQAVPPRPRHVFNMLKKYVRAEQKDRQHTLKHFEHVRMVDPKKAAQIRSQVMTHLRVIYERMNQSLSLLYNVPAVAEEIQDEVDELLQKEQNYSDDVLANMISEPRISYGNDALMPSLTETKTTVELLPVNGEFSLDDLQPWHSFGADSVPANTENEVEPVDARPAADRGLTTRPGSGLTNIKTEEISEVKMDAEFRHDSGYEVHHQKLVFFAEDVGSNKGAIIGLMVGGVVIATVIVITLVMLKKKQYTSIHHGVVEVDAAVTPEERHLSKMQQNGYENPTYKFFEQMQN

[2] = target: T1, Amyloid-beta precursor protein; assay: Inhibition of HFIP-pretreated amyloid beta (1 to 42) (unknown origin) self-induced aggregation after 48 hrs by thioflavin T-based fluorometric assay
[3] = Antioxidant activity assessed as trolox equivalents of AAPH radical scavenging activity at 10 uM preincubated for 15 mins followed by AAPH addition measured every minute for 120 mins by ORAC-FL assay; assay type: functional
[4] = Inhibition of Cu2+ - induced amyloid beta (1 to 42) (unknown origin) aggregation at 50 uM after 24 hrs by thioflavin T-based fluorometric assay relative to control
[5] = Inhibition of Zn2+ - induced amyloid beta (1 to 42) (unknown origin) aggregation at 50 uM after 24 hrs by thioflavin T-based fluorometric assay relative to control
[6] = system: PC-12; assay: Cytoprotection against rotenone-induced oxidative stress in rat PC12 cells assessed as increase in cell viability up to 10 uM after 24 hrs by MTT assay; assay type: functional, cell-based
[7] = system: PC-12; assay: Cytoprotection against oligomycin A-induced oxidative stress in rat PC12 cells assessed as increase in cell viability up to 10 uM after 24 hrs by MTT assay; assay type: functional, cell-based
[8] = Metal chelating activity assessed as compound-Cu2+ complex formation by measuring maximum absorption wavelength at 50 uM measured after 30 mins by UV-vis spectrophotometric method (reference value: 241 nanometer)
[9] = Metal chelating activity assessed as compound-Zn2+ complex formation by measuring maximum absorption wavelength at 50 uM measured after 30 mins by UV-vis spectrophotometric method (reference value: 241 nanometer)
[10] = Metal chelating activity assessed as compound-Fe2+ complex formation by measuring maximum absorption wavelength at 50 uM measured after 30 mins by UV-vis spectrophotometric method (reference value: 241 nanometer)
[11] = Metal chelating activity assessed as compound-Fe3+ complex formation at 50 uM measured after 30 mins by UV-vis spectrophotometric method
[12] = Metal chelating activity assessed as compound-Cu2+ complex formation at 50 uM measured after 20 mins by fluorescence spectroscopic method
[13] = Metal chelating activity assessed as compound-Zn2+ complex formation at 50 uM measured after 20 mins by fluorescence spectroscopic method
[14] = Metal chelating activity assessed as compound-Fe2+ complex formation at 50 uM measured after 20 mins by fluorescence spectroscopic method
[15] = Metal chelating activity assessed as compound-Fe3+ complex formation at 50 uM measured after 20 mins by fluorescence spectroscopic method
[16] = Metal chelating activity assessed as mole fraction of compound required to show 2.3:1 stoichiometry for compound-Cu2+ complex at 50 uM by Job's plot analysis
[17] = Metal chelating activity assessed as mole fraction of compound required to show 2:1 stoichiometry for compound-Zn2+ complex at 50 uM by Job's plot analysis
[18] = Cytotoxicity against rat PC12 cells assessed as cell viability at 20 uM after 24 hrs by MTT assay relative to control; assay type: cell-based, PC-12; details: read-out: Activity
[19] = system: PC-12; assay: Cytoprotection against H2O2-induced oxidative stress in rat PC12 cells assessed as increase in cell viability after 24 hrs by MTT assay; assay type: functional, cell-based
[20] = system: PC-12; assay: Inhibition of H2O2-induced ROS level in rat PC12 cells preincubated for 4 hrs followed by H2O2 addition measured after 24 hrs by DCFH-DA staining based flow cytometry; assay type: functional, cell-based
[21] = system: PC-12; assay: Inhibition of H2O2-induced ROS level in rat PC12 cells assessed as mean fluorescence intensity at 2.5 uM preincubated for 4 hrs followed by H2O2 addition measured after 24 hrs by DCFH-DA staining based flow cytometry (reference value: 16947); assay type: functional
[22] = system: PC-12; assay: Inhibition of H2O2-induced ROS level in rat PC12 cells assessed as mean fluorescence intensity at 5 uM preincubated for 4 hrs followed by H2O2 addition measured after 24 hrs by DCFH-DA staining based flow cytometry (reference value: 16947); assay type: functional
[23] = system: PC-12; assay: Inhibition of H2O2-induced ROS level in rat PC12 cells assessed as mean fluorescence intensity at 10 uM preincubated for 4 hrs followed by H2O2 addition measured after 24 hrs by DCFH-DA staining based flow cytometry (reference value: 16947); assay type: functional
[24] = system: PC-12; assay: Cytoprotection against H2O2-induced apoptosis in rat PC12 cells assessed as necrotic cells at 2.5 uM preincubated for 4 hrs followed by H2O2 addition measured after 24 hrs by Annexin V-FITC/propidium iodide staining based flow cytometry (reference value: 8.9%); assay type: functional
[25] = system: PC-12; assay: Cytoprotection against H2O2-induced apoptosis in rat PC12 cells assessed as live cells at 2.5 uM preincubated for 4 hrs followed by H2O2 addition measured after 24 hrs by Annexin V-FITC/propidium iodide staining based flow cytometry (reference value: 57%); assay type: functional
[26] = system: PC-12; assay: Cytoprotection against H2O2-induced apoptosis in rat PC12 cells assessed as early apoptotic cells at 2.5 uM preincubated for 4 hrs followed by H2O2 addition measured after 24 hrs by Annexin V-FITC/propidium iodide staining based flow cytometry (reference value: 1.5%); assay type: functional
[27] = system: PC-12; assay: Cytoprotection against H2O2-induced apoptosis in rat PC12 cells assessed as late apoptotic cells at 2.5 uM preincubated for 4 hrs followed by H2O2 addition measured after 24 hrs by Annexin V-FITC/propidium iodide staining based flow cytometry (reference value: 32.6%); assay type: functional
[28] = system: Mus musculus; assay: Acute toxicity in Kunming mouse assessed as fur sleekness up to 2000 mg/kg, po measured after 4 hrs; assay type: organism-based; details: in vivo
[29] = system: Mus musculus; assay: Acute toxicity in Kunming mouse assessed as effect on water consumption up to 2000 mg/kg, po measured after 4 hrs; assay type: organism-based; details: in vivo
[30] = system: Mus musculus; assay: Acute toxicity in Kunming mouse assessed as effect on food consumption up to 2000 mg/kg, po measured after 4 hrs; assay type: organism-based; details: in vivo
[31] = system: Mus musculus; assay: Acute toxicity in Kunming mouse assessed as effect on body weight up to 2000 mg/kg, po measured after 4 hrs; assay type: organism-based; details: in vivo
[32] = system: Mus musculus; assay: Acute toxicity in Kunming mouse assessed as death up to 2000 mg/kg, po measured after 4 hrs; assay type: organism-based; details: in vivo
[33] = system: Mus musculus; assay: Cardiotoxicity in Kunming mouse up to 2000 mg/kg, po measured after 14 days by macroscopic method; assay type: toxicity, organism-based; details: in vivo, 336 h
[34] = system: Mus musculus; assay: Hepatotoxicity in Kunming mouse up to 2000 mg/kg, po measured after 14 days by macroscopic method; assay type: toxicity, organism-based; details: in vivo, 336 h
[35] = system: Mus musculus; assay: Nephrotoxicity in Kunming mouse up to 2000 mg/kg, po measured after 14 days by macroscopic method; assay type: toxicity, organism-based; details: in vivo, 336 h
[36] = system: Mus musculus; assay: Acute toxicity in Kunming mouse assessed as mortality up to 2000 mg/kg, po measured after 14 days; assay type: organism-based; details: in vivo, 336 h
[37] = system: PC-12; assay: Cytoprotection against H2O2-induced apoptosis in rat PC12 cells assessed as live cells at 5 uM preincubated for 4 hrs followed by H2O2 addition measured after 24 hrs by Annexin V-FITC/propidium iodide staining based flow cytometry (reference value: 57%); assay type: functional
[38] = system: PC-12; assay: Cytoprotection against H2O2-induced apoptosis in rat PC12 cells assessed as early apoptotic cells at 5 uM preincubated for 4 hrs followed by H2O2 addition measured after 24 hrs by Annexin V-FITC/propidium iodide staining based flow cytometry (reference value: 1.5%); assay type: functional
[39] = system: PC-12; assay: Cytoprotection against H2O2-induced apoptosis in rat PC12 cells assessed as late apoptotic cells at 5 uM preincubated for 4 hrs followed by H2O2 addition measured after 24 hrs by Annexin V-FITC/propidium iodide staining based flow cytometry (reference value: 32.6%); assay type: functional
[40] = system: PC-12; assay: Cytoprotection against H2O2-induced apoptosis in rat PC12 cells assessed as necrotic cells at 5 uM preincubated for 4 hrs followed by H2O2 addition measured after 24 hrs by Annexin V-FITC/propidium iodide staining based flow cytometry (reference value: 8.9%); assay type: functional
[41] = system: PC-12; assay: Cytoprotection against H2O2-induced apoptosis in rat PC12 cells assessed as live cells at 10 uM preincubated for 4 hrs followed by H2O2 addition measured after 24 hrs by Annexin V-FITC/propidium iodide staining based flow cytometry (reference value: 57%); assay type: functional
[42] = system: PC-12; assay: Cytoprotection against H2O2-induced apoptosis in rat PC12 cells assessed as early apoptotic cells at 10 uM preincubated for 4 hrs followed by H2O2 addition measured after 24 hrs by Annexin V-FITC/propidium iodide staining based flow cytometry (reference value: 1.5%); assay type: functional
[43] = system: PC-12; assay: Cytoprotection against H2O2-induced apoptosis in rat PC12 cells assessed as late apoptotic cells at 10 uM preincubated for 4 hrs followed by H2O2 addition measured after 24 hrs by Annexin V-FITC/propidium iodide staining based flow cytometry (reference value: 32.6%); assay type: functional
[44] = system: PC-12; assay: Cytoprotection against H2O2-induced apoptosis in rat PC12 cells assessed as necrotic cells at 10 uM preincubated for 4 hrs followed by H2O2 addition measured after 24 hrs by Annexin V-FITC/propidium iodide staining based flow cytometry (reference value: 8.9%); assay type: functional
[45] = in vitro; details: PAMPA
Description: Permeability of the compound at 100 ug/ml after 10 hrs by PAMPA

For `O=C(/C=C/c1ccc(Cl)cc1)N1CCN(Cc2ccc(O)c3ncccc23)CC1`, the inhibition [1] was 25.7%, the IC50 [2] was 22.6 µM and the Activity [3] was 0.69 equiv.

Compound `N#Cc1ccc(/C=C/C(=O)N2CCN(Cc3ccc(O)c4ncccc34)CC2)cc1` has an inhibition [1] of 27.8%, an IC50 [2] of 16.8 µM and an Activity [3] of 1.77 equiv.

With `O=C(O)/C=C/c1ccccc1` the Activity [3] was 1.04 equiv.

Compound `O=C(/C=C/c1ccc(F)cc1)N1CCN(Cc2ccc(O)c3ncccc23)CC1` has an inhibition [1] of 49.9%, an IC50 [2] of 11.4 µM and an Activity [3] of 1.45 equiv.

In the case of `Oc1c(I)cc(Cl)c2cccnc12`, the inhibition [1] is reported as 25.7%, the Activity [3] is reported as 0.53 equiv and the inhibition [4] is reported as 61.4%. The inhibition [5] was 55.3%.

Compound `O=C(CCc1ccc(F)cc1)N1CCN(Cc2ccc(O)c3ncccc23)CC1` has an inhibition [1] of 32.5%, an IC50 [2] of 20.6 µM and an Activity [3] of 2.32 equiv.

For `O=C(CCc1ccccc1Cl)N1CCN(Cc2ccc(O)c3ncccc23)CC1`, the Activity [6] was “Active”, the Activity [7] was “Active” and the inhibition [1] was 65.8%. It also gave an IC50 [2] of 5.64 µM, an Activity [3] of 2.63 equiv and an inhibition [4] of 88.9%. It also gave an inhibition [5] of 73.3%, an Activity [8] of 261 nm and an Activity [9] of 260 nm. The Activity [10] was 265 nm, the Activity [11] was “Active” and the Activity [12] was “Active”. For the same compound, the Activity [13] was “Active”, the Activity [14] was “Active” and the Activity [15] was “Active”. The Activity [16] was 0.7 molar ratio, the Activity [17] was 0.66 molar ratio and the viability at 24 h, 20 µM [18] was 83%. The Activity [19] was “Dose-dependent effect”, the inhibition [20] was “Dose-dependent effect” and the Flu intensity [21] was 14556. The Flu intensity [22] was 10332, the Flu intensity [23] was 9392 and the Activity [24] was 3.7%. It also gave an Activity [25] of 79.9%, an Activity [26] of 2.1% and an Activity [27] of 14.4%. The Activity [28] was “Non-Toxic”, the Activity [29] was “Non-Toxic” and the Activity [30] was “Non-Toxic”. For the same compound, the Activity [31] was “Non-Toxic”, the Activity [32] was “Non-Toxic” and the Activity [33] was “Non-Toxic”. The Activity [34] was “Non-Toxic”, the Activity [35] was “Non-Toxic” and the Activity [36] was “Non-Toxic”. The Activity [37] was 88.3%, the Activity [38] was 2.3% and the Activity [39] was 8%. The Activity [40] was 1.4%, the Activity [41] was 90.9% and the Activity [42] was 2%. The Activity [43] was 5.8%, the Activity [44] was 1.3% and the Papp at 10 h, 100 ug/ml [45] was 11.1 ×10⁻⁶ cm/s.

`O=C(O)CCc1ccccc1` gave an Activity [3] of 0.86 equiv.

In the case of `O=C(CCc1ccccc1)N1CCN(Cc2ccc(O)c3ncccc23)CC1`, the inhibition [1] is reported as 28.1%, the IC50 [2] is reported as 19.7 µM and the Activity [3] is reported as 2.6 equiv.

In the case of `O=C(/C=C/c1ccccc1Cl)N1CCN(Cc2ccc(O)c3ncccc23)CC1`, the inhibition [1] is reported as 61.9%, the IC50 [2] is reported as 7.35 µM and the Activity [3] is reported as 0.71 equiv. It also gave a Papp at 10 h, 100 ug/ml [45] of 6.83 ×10⁻⁶ cm/s.

Work on `Cc1ccccc1/C=C/C(=O)N1CCN(Cc2ccc(O)c3ncccc23)CC1` yielded an inhibition [1] of 26.1%, an IC50 [2] of 17.3 µM and an Activity [3] of 1.52 equiv.

Work on `COc1ccc(CCC(=O)N2CCN(Cc3ccc(O)c4ncccc34)CC2)cc1OC` yielded an inhibition [1] of 18.3%, an Activity [3] of 3.74 equiv and a Papp at 10 h, 100 ug/ml [45] of 9.67 ×10⁻⁶ cm/s.
